According to US10759796B2, “CXCR4 inhibitors and uses thereof” (X4 Pharmaceuticals, Inc., priority 2016, dated 2020):

Tests used:
[1] = target: CXCR-4 transfected U87 cell line (U87.CXCR4) (Homo sapiens (Human), UniProt P61073); assay: Intracellular CXCL-12-induced calcium mobilization assay (FLIPR); type: cell-based; details: U87.CXCR4 cells, CXCL-12 25-50 ng/mL; read-out: IC50 CXCL-12 Ca2+ flux U87.CXCR4+
In short: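 U87.CXCR4 cells were seeded at 20,000 per well, cultured 12 hours, then loaded with 4 μM Fluo-2 AM for 45 min at 37° C. in HBSS with 20 mM HEPES and 0.2% BSA, pH 7.4. Calcium flux triggered by CXCL-12 (25-50 ng/mL) was tracked over time by FLIPR fluorescence at 37° C.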

[2] = target: Jurkat cells expressing CXCR4 (Homo sapiens (Human), UniProt P61073); assay: Chemokine (CXCL12-AF647) binding inhibition assay; details: CXCL12-AF647 25 ng/mL, read-out: IC50 CXCL-12 binding Jurkat
In short: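 Cells in HBSS, 20 mM HEPES, 0.2% BSA, pH 7.4, preincubated 15 min at room temperature with compound, then 25 ng/mL CXCL12-AF647 for 30 min. After washing and paraformaldehyde fixation, bound ligand read by flow cytometry; percent inhibition calculated from MFI relative to unlabeled and ligand-only controls.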

[3] = in vitro; details: human, Caco-2, pH 7.4
In short: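 Compounds at 10 μM in HBSS pH 7.4 (0.1–0.3% DMSO) were dosed on Caco-2 monolayers, apical-to-basolateral and basolateral-to-apical, for 90 min at 37 °C, in duplicate. Monolayer integrity was checked by TEER and lucifer yellow flux, read by fluorescence at 485/535 nm. Compound was quantified by LC-MS/MS and Papp calculated.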

Sequence of Jurkat cells expressing CXCR4 (P61073 whole entry): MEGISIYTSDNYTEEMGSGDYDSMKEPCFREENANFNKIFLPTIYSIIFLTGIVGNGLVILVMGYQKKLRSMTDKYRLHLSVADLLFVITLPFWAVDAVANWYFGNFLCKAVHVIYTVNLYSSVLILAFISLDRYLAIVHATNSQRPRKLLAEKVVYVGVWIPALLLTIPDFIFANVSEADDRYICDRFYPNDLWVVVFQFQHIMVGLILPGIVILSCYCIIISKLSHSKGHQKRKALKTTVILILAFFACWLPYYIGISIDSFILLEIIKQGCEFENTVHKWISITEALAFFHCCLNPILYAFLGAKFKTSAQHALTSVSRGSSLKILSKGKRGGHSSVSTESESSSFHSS
Sequence of CXCR-4 transfected U87 cell line (U87.CXCR4) (P61073 whole entry): as above

Row | IC50 [1] [nM] | IC50 [2] [nM] | Papp A→B at 90 min, 10 μM [3] [×10⁻⁶ cm/s] | Papp B→A at 90 min, 10 μM [3] [×10⁻⁶ cm/s] | efflux ratio at 90 min, 10 μM [3] | SMILES
1 | ≥ 1000 | 100 to 1000 | 0.1 to 10 | > 30 | 10 to 30 | Cc1cccnc1[C@@H]1CCC[C@H](c2cn3c(N4CCN(C5COC5)CC4)cccc3n2)N1C [Compound I-52]
2 | 100 to 1000 | 0.01 to 100 | 10 to 30 | 10 to 30 | 0.1 to 10 | Cc1cccnc1[C@@H]1CCC[C@H](c2cn3c(N4CCN(C5CC5)CC4)cccc3n2)N1C [Compound I-66]
3 | 0.01 to 100 | 0.01 to 100 | 0.1 to 10 | 10 to 30 | 0.1 to 10 | CN1CCN(c2cccc3nc([C@H]4CCC[C@@H](c5ncccc5C5CC5)N4C)cn23)CC1 [Compound I-79]
4 | 0.01 to 100 | 0.01 to 100 | 0.1 to 10 | 0.1 to 10 | 0.1 to 10 | Cc1cccnc1[C@@H]1CCC[C@H](c2nc3cccc(N4CCN(C)CC4)n3c2Br)N1C [Compound I-17]
5 | 0.01 to 100 | 0.01 to 100 | 0.1 to 10 | 10 to 30 | 0.1 to 10 | Cc1cccnc1[C@@H]1CCC[C@H](c2cn3c(N4CCN(C)CC4)cccc3n2)N1C [Compound I-1]
6 | 0.01 to 100 | 0.01 to 100 | 0.1 to 10 | > 30 | > 30 | Cc1cccnc1[C@@H]1CCC[C@H](c2nc3ccccn3c2CN2CCN(C)CC2)N1C [Compound I-38]
7 | 0.01 to 100 | 0.01 to 100 | 0.1 to 10 | 10 to 30 | 0.1 to 10 | CCOCc1c([C@H]2CCC[C@@H](c3ncccc3C)N2C)nc2cccc(N3CCN(CC)CC3)n12 [Compound I-56]
8 | 0.01 to 100 | 0.01 to 100 | 0.1 to 10 | 10 to 30 | 0.1 to 10 | CN(C)C1CCN(c2cccc3nc([C@H]4CCC[C@@H](c5ncccc5Cl)N4C)cn23)CC1 [Compound I-142]
9 | 100 to 1000 | 0.01 to 100 | 0.1 to 10 | > 30 | > 30 | CC[C@@H](O)c1c([C@H]2CCC[C@@H](c3ncccc3C)N2C)nc2cccc(N3CCN(C)CC3)n12 [Compound I-139]
10 | ≥ 1000 | 100 to 1000 | 0.1 to 10 | 0.1 to 10 | 0.1 to 10 | CC(C)c1cccnc1[C@@H]1CCC[C@H](c2nc3cccc(N4CCN(C)CC4)n3c2Cl)N1C [Compound I-91]
11 | 0.01 to 100 | 0.01 to 100 | 0.1 to 10 | 10 to 30 | 0.1 to 10 | CCN1CCN(c2cccc3nc([C@H]4CCC[C@@H](c5ncccc5C)N4C)c(CO)n23)CC1 [Compound I-61]
12 | 0.01 to 100 | 0.01 to 100 | 0.1 to 10 | 10 to 30 | 0.1 to 10 | Cc1cccnc1[C@@H]1CCC[C@H](c2cn3c(N4CCN(C)CC4)cccc3n2)N1CCCO [Compound I-49]

Second part, the molecule before the results:

Row | SMILES | IC50 [1] [nM] | IC50 [2] [nM] | Papp A→B at 90 min, 10 μM [3] [×10⁻⁶ cm/s] | Papp B→A at 90 min, 10 μM [3] [×10⁻⁶ cm/s] | efflux ratio at 90 min, 10 μM [3]
13 | CCN1CCN(Cc2c([C@H]3CCC[C@@H](c4ncccc4C)N3C)nc3ccccn23)CC1 [Compound I-40] | 0.01 to 100 | 0.01 to 100 | 0.1 to 10 | > 30 | > 30
14 | CC(C)N1CCN(c2cccc3nc([C@H]4CCC[C@@H](c5ncccc5Cl)N4C)c(Cl)n23)CC1 [Compound I-123] | ≥ 1000 | 0.01 to 100 | 0.1 to 10 | 0.1 to 10 | 0.1 to 10
15 | COc1cccnc1[C@@H]1CCC[C@H](c2cn3c(N4CCNC5(CC5)C4)cccc3n2)N1 [Compound I-172] | ≥ 1000 | ≥ 1000 | 0.1 to 10 | > 30 | > 30
16 | Cc1cccnc1[C@H]1CCC[C@@H](c2nc3ccccn3c2-c2ccncc2)N1 [Compound I-207] | ≥ 1000 | ≥ 1000 | 10 to 30 | > 30 | 0.1 to 10
17 | CN1C2CCC1CN(c1cccc3nc([C@H]4CCC[C@@H](c5ncccc5Cl)N4)cn13)C2 [Compound I-181] | 0.01 to 100 | 0.01 to 100 | 0.1 to 10 | 10 to 30 | 0.1 to 10
18 | Cc1cccnc1[C@H]1CCC[C@@H](c2nc3ccccn3c2CCCN(C)C)N1C (stereo in doubt) [Compound I-28] | 100 to 1000 | 0.01 to 100 | 0.1 to 10 | 10 to 30 | > 30
19 | CCN1CCN(c2cccc3nc([C@H]4CCC[C@@H](c5ncccc5C)N4C)c(COC(C)C)n23)CC1 [Compound I-60] | 0.01 to 100 | 0.01 to 100 | 0.1 to 10 | 10 to 30 | 0.1 to 10
20 | CCN1CCN(c2cccc3nc([C@H]4CCC[C@@H](c5ncccc5Cl)N4C)c(Cl)n23)CC1 [Compound I-125] | 100 to 1000 | 0.01 to 100 | 0.1 to 10 | 0.1 to 10 | 0.1 to 10
21 | Cc1cccnc1[C@@H]1CCC[C@H](c2nc3ccccn3c2-c2cccnc2)N1 [Compound I-208] | ≥ 1000 | ≥ 1000 | 10 to 30 | 10 to 30 | 0.1 to 10
22 | Clc1cccnc1[C@@H]1CCC[C@H](c2cn3c(N4CCNC5(CC5)C4)cccc3n2)N1 [Compound I-166] | ≥ 1000 | 100 to 1000 | 10 to 30 | 10 to 30 | 0.1 to 10
